How the values were obtained:
[1] = test system: MDA-MB-231 and BT-20 cells; experiment: MTT assay (short-term cell viability); format: cell-based; conditions: time-dependent, SLLN-15 compared with vorinostat; FIG. 6A
Description: The short-term effects of SLLN-15 on tumor cell growth were assessed using the 3-(4,5-dimethylthiazol-2-yl)-2,5-diphenylte-trazolium bromide (MTT; Sigma) assay. Cells were seeded at a density of 5000 cells/well in a 96-well plate and treated with SLLN-15 as indicated concentration or DMSO for 24 hours. MTT solution (5 mg/ml in RPMI 1640 medium) was added (20 μl/well), and plates were incubated for 4 hours in dark at 37° C., then the purple formazan crystals were then dissolved in 100 μl MTT solvent (4 mM HCl and 0.1% NP-40 in isopropanol). The plates were read on FLUOstar OPTIMA microplate reader (BMG Labtech, Ortenberg, Germany) at 570 nm. Assays were performed in triplicate on three independent experiments.

[2] = test system: cleaved-PARP, cleaved-caspase 3, Bcl-2 in MDA-MB-231 and BT-20 cells; experiment: Western blot of indicators of apoptosis; format: cell-based; conditions: FIG. 6B
Description: Sub-confluent cells were washed with PBS, lysed in RIPA buffer (50 mM Tris-HCl at pH7.5, 150 mM sodium chloride, 1% tritonX-100, 0.1% SDS, 2 mM EDTA and 25 mM sodium fluoride) supplemented with 1 mM PMSF and protease inhibitor cocktail (Roche) for 10 min on ice and centrifuged (13,000 rpm at 4° C. for 20 min) to separate cell lysate. Cell lysate (50 μg protein, as measured by the Bradford protein assay) was then added with SDS sample buffer (Tris at pH 6.8, 20% glycerol, 5% SDS, bromophenol blue and β-mercaptoethanol) and boiled for 5 min. Samples were then resolved through 13% SDS-PAGE gels, transferred to nitrocellulose membrane, blotted with specific first antibodies at different dilution in cold room overnight, and then amplified with horseradish peroxidase-conjugated secondary antibodies for 1 hour in room temperature and enhanced by chemiluminescence detection system.
Considering apoptosis is the major form of cell death induced by chemotherapeutic agent, we seek to identify whether the anticancer effect of SLLN-15 was mediated via apoptosis in breast cancer cells.

SMILES: O=C(CCCCCCC(=O)Nc1ccccc1)NO [vorinostat, suberoylanilide hydroxamic acid, reference compound]
- cell viability (MTT) [1]: markedly decreased cell viability
- indicators of apoptosis: upregulation of cleaved-PARP and cleaved-caspase 3, downregulation of Bcl-2 [2]: only detected in vorinostat treated cells

From patent US12012408B2, “Purine compounds and method for the treatment of cancer” (THE ROYAL INSTITUTION FOR THE ADVANCEMENT OF …, priority 2018, dated 2024)
